In patent EP1861101B1, “USE OF AMIDES OF SULFADIMIDINE FOR THE TREATMENT OF INTESTINAL DISEASES IN VETERINARY SCIENCE” (priority 2005, dated 2006):
Like-named read-outs stand apart in the source and are kept apart here.

Key:
[1] = tested on: digestive syndrome; test: prevention and treatment of digestive syndrome (colibacillosis and enterotoxemia) in rabbit farming; format: in vivo; conditions: rabbits
Description: Given the complex relations existing between colibacillosis and enterotoxemia, they are currently included under the designation "digestive syndrome" for practical purposes. Treatment with an association of systemic drugs with drugs acting exclusively on the intestinal tract is indicated.
In the following table 2 the use of SMAA is compared to the products used most often in rabbit farming for the prevention and treatment of digestive syndrome: Table 2

[2] = tested on: C. perfringens; format: in vivo, lambs; conditions: 500 g/ton of feed
[3] = depletion of residue in lambs fed treated feed until the day of slaughter; format: in vivo; conditions: lambs that consumed treated feed until the day of slaughter
[4] = tested on: Clostridium, E. coli, Salmonella, and Eimeria parasites; test: treatment of ovine livestock with SMAA in food; format: in vivo; conditions: even at high doses
Description: In general, ovine livestock according to the invention is preferably treated with SMAA in food. The invention is especially useful for the prevention of enteric bacterial processes, mainly due to Clostridium, E. coli, Salmonella, and Eimeria parasites. […] Incompatibilities with other medicaments are unknown. It is not necessary to establish a withdrawal period before slaughter.
According to the invention, the association of SMAA-chlortetracycline is preferred when the pathology is located fundamentally in the digestive tract, and the association of SMAA-oxytetracycline when a preventive action at the enteric and respiratory level is sought. The most habitual doses range from 200 and 400 g/ton of feed, although it can be raised to 750 g/ton without problems.

[5] = tested on: Eimeria; test: field tests, treatment of coccidiosis in broilers through feed; format: in vivo; conditions: 200 to 400 g/metric ton of feed; given in the first three weeks of life, then replaced by another coccidiostatic
Protocol: SMAA was used for the treatment of coccidiosis in broilers through feed, at doses ranging from 200 to 400 g/metric ton of feed. The best results in terms of mortality, weight gain, and conversion index have been obtained when SMAA is administered in the first three weeks of life of the chickens, and then replaced by another coccidiostatic. To this effect, our experience confirms the observations that an even improved productivity is obtained when two different coccidiostatics are alternated in the growth period.

[6] = tested on: digestive bacterial diseases in pigs; test: SMAA in feed against enteric processes in swine; format: in vivo; conditions: 400-600 g per ton of feed
[7] = tested on: Serpulina hyodisenteriae; test: SMAA in feed against swine dysentery; format: in vivo; conditions: 550-600 g per ton of feed
Description: Although establishing a dose for the administration of a therapeutic molecule is always difficult, because therapeutic efficacy not depend only on its efficacy at a given dose, but also on the state of the animals, management, sanitary conditions of operation, feeding etc., good results were obtained with SMAA in swine at doses of 550-600 g of SMAA per ton of feed. The association of SMAA with macrolides is interesting, but it is extremely important to consider the withdrawal period of the macrolide to avoid the accumulation of residues in carcasses.

[8] = solubility in water; format: physicochemical
Description: If the amide is the amide of maleic acid (SMAA), the amide comprises one carboxylic group. […] The free acids of the compound of the invention are essentially water insoluble and electrically neutral compounds, which become soluble in water when the free carboxyl group or other groups in the compound are converted to the carboxylate form by addition of an equivalent amount of an appropriate base, for instance an alkali or ammonium hydroxide or amine or alkanolamine.

[9] = tested on: Coccidia
[10] = growth feed for swine; cited from earlier work
[11] = tested on: Clostridium, E. coli, and Salmonella; test: treatment of ovine livestock with soluble SMAA in drinking water; format: in vivo
Protocol: In another preferred embodiment of the invention, soluble SMAA is applied with drinking water. This application is especially useful for the treatment of enteric bacterial processes, mainly Clostridium, E. coli, and Salmonella. […] Incompatibilities with other medicaments are unknown. A withdrawal period before slaughter is not necessary. When non-absorbable derivatives of sulfadimidine are added to drinking water, they are not often associated with other molecules. […] The usual dose ranges from 550-1100 g/2000 liters of water for 4 to 6 days. The availability of a soluble form makes it possible to administer the product in a milk substitute. In this case the dosage should be established in relation to the consumption of powdered milk substitutes.

With `CCN1CCN(c2cc3c(cc2F)c(=O)c(C(=O)O)cn3C2CC2)CC1` [Enrofloxacin] the Observations ([1]; efficacy remark) was “Effective”.
With `O=C1OCCN1/N=C/c1ccc([N+](=O)[O-])o1` [Furazolidone] the Observations ([1]; efficacy remark) was “Effective”.
For `Cc1cc(C)nc(NS(=O)(=O)c2ccc(NC(=O)/C=C\C(=O)O)cc2)n1` [SMAA, 4,6-dimethyl-2-N^4-maleylsulfanilamidopyrimidine], the Observations ([1]; duration of treatment and toxicity) was “Treatment can be prolonged without risk of toxicity”, the Observations ([1]; effect on mortality) was “This treatment curtails mortality” and the Observations ([1]; efficacy remark) was “The most effective agent in mixed infections by Coccidia”. For the same molecule, the mortality ([2]; end of trial (4 weeks), due to undetermined causes) was “lower than 0.3%”, the “enterotoxemia in the livestock” value ([2]; end of trial (4 weeks), five thousand lambs, richer feed (1.03 UFC)) was “absent” and the “watery diarrhea caused by E. coli, Salmonella dysentery, or coccidiosis” value ([2]; trial of 4 weeks) was “no case”. The “residue level in meat” value [3] was “below 30 ppb”, the dysbacteriosis [4] was “no problems of dysbacteriosis have appeared” and the “mortality, weight gain, and conversion index” value [5] was “best results”. For the same molecule, the results in swine [6] was “good results”, the results in swine [7] was “good results” and the solubility in water ([8]; listed as free acid of SMAA) was “essentially insoluble”. The Observations ([9]; efficacy remark, rabbits) was “most effective in mixed infections with E. coli” and the Observations ([9]; rabbit, in vivo) was “Treatment can be extended up to 3 weeks, if given in low doses, without risk of toxicity or residues in carcasses”.
For `COc1cc(NS(=O)(=O)c2ccc(NC(=O)/C=C\C(=O)O)cc2)nc(OC)n1` [Sulfadimethoxine maleic acid amide], the Observations ([9]; efficacy remark, rabbits) was “Very interesting in mixed infections” and the Observations ([9]; rabbit, in vivo) was “Treatments can continue for 21 days without risk of toxicity or residues in carcasses”.
With `COc1cc(NS(=O)(=O)c2ccc(N)cc2)nc(OC)n1` [Sulfadimethoxine] the Observations ([9]; efficacy remark, rabbits) was “Very interesting in mixed infections” and the Observations ([9]; rabbit, in vivo) was “requires a period of withdrawal before slaughter”.
For `Cc1cc(C)nc(NS(=O)(=O)c2ccc(N)cc2)n1` [Sulfadimidine, 2-(4-aminobenzenesulfonamido)-4,6-dimethylpyrimidine], the Observations ([9]; effect on mortality, rabbits) is listed as “This treatment curtails mortality” and the withdrawal period [10] is listed as 28 days.
In the case of `Cc1cc(C)nc(NS(=O)(=O)c2ccc(NC(=O)/C=C\C(=O)O)cc2)n1` [soluble SMAA], the dysbacteriosis ([11]; even at high doses) was “no problems of dysbacteriosis have appeared”, the “treatment of coccidiosis outbreaks” value ([11]; usually 4 to 6 days) was “highly effective” and the solubility in water ([8]; listed as sodium salt) was “essentially soluble”.
In the case of Colistin, the Observations ([1]; effect on mortality) was “Colistin reduces mortality”.
In the case of Neomycin, the Observations ([1]; efficacy remark) was “Efficacious against moderately pathogenic strains”.
